Results as given in patent US20240067632A1, “WEE1 Degrading Compounds and Uses Thereof” (Bristol-Myers Squibb Company, priority 2022, published 2024).
Read-outs that look alike come from different tables or passages of the source.

Legend:
MKN45 cells = assay: MKN45 cell proliferation assay (Cell-Titer-Glo, 120 h); type: cell-based; conditions: for EC50: Homo sapiens, MKN-45, 120 h, Cell-Titer-Glo, read-out: MKN45 Cell Prolif. 120 hr (EC50); for MKN45 Cell Prolif. 120 hr (Ymin-Obs): minimal percent of DMSO control observed in the concentrations tested
Procedure, shortened: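 Cells seeded at 400/well onto pre-printed 10-point half-log dilutions (top 1 or 10 uM, 0.1% DMSO final), in triplicate, and grown 120 h at 37 C. Viability by Cell-Titer-Glo luminescence, blank-subtracted and normalised to DMSO; EC50 from four-parameter logistic fit, with observed minimal % of control recorded as Ymin-obs.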

WEE1 = target: T1, WEE1 (Homo sapiens, UniProt P30291+Q96SW2); assay: WEE1-ePL degradation assay (LentiX-WEE1-ePL-GSPT1-ND cells, InCELL Hunter luminescence, 4 h); type: cell-based; conditions: 293T-LentiX WEE1-ePL cells; for DC50: read-out: 293T-LentiX WEE1-ePL Degradation 4 hr (EC50)
T1 construct: C-terminal ePL-tagged (DiscoverX, Fremont, CA) full-length WEE1 expression construct; expressed in transfected cells; host or cells: LentiX-HEK293T (Invitrogen), lentiviral transduction; co-expressing GSPT1-GN (G576N, lacking the first 158 amino acids)
Procedure, shortened: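 Degradation EC50 was fitted by a four-parameter logistic model, with the upper limit taken from DMSO wells. Luminescence was read with InCELL Hunter reagent after 30 min at room temperature, following a 4 h, 37° C exposure of 2500 cells/well. Cells were LentiX-HEK293T carrying ePL-tagged full-length WEE1, dosed in 10 points (3-fold) from 1 or 10 uM.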

[1] = lower limit of the fit (0 = luciferase inhibitor, Ymax = DMSO control)
[2] = lower limit of the fit (Ymin=0 luciferase inhibitor, Ymax DMSO control)

SMILES | EC50 (MKN45 cells; growth inhibition) | 293T-LentiX WEE1-ePL Degradation 4 hr (Ymin) (WEE1; [1]) | DC50 (WEE1) | EC50 (MKN45 cells) | 293T-LentiX WEE1-ePL Degradation 4 hr (Ymin) (WEE1; [2]) | MKN45 Cell Prolif. 120 hr (Ymin-Obs) (MKN45 cells)
O=C1CCC(N2Cc3cc(O[C@H]4CCN(Cc5ccc6nc(N7CC[C@]78CCOC8)ncc6c5)C4)ccc3C2=O)C(=O)N1 (stereo partly drawn) [3-(5-{[(3S)-1-({2-[(4R)-6-oxa-1-azaspiro[3.4]octan-1-yl]quinazolin-6-yl}methyl)pyrrolidin-3-yl]oxy}-1-oxo-2,3-dihydro-1H-isoindol-2-yl)piperidine-2,6-dione] | 16.7 nM | 35.43 | 19.5 nM |  |  | 13.42
O=C1CCC(N2Cc3cc(O[C@H]4CCN(Cc5cc6ccc(N7CCOCC7)cc6cn5)C4)ccc3C2=O)C(=O)N1 (stereo partly drawn) [3-(5-{[(3S)-1-{[7-(morpholin-4-yl)isoquinolin-3-yl]methyl}pyrrolidin-3-yl]oxy}-1-oxo-2,3-dihydro-1H-isoindol-2-yl)piperidine-2,6-dione] | 3.17 nM | 36 | 3.82 nM |  |  | 6.72
O=C1CCC(N2Cc3cc(O[C@H]4CCN(Cc5ccc6ccc(=O)oc6c5)C4)ccc3C2=O)C(=O)N1 (stereo partly drawn) [3-(1-oxo-5-{[(3S)-1-[(2-oxo-2H-chromen-7-yl)methyl]pyrrolidin-3-yl]oxy}-2,3-dihydro-1H-isoindol-2-yl)piperidine-2,6-dione] | > 10000 nM | 55 | 28.8 nM |  |  | 85.765

Further lines, with some results ahead:

EC50 (MKN45 cells; growth inhibition) | 293T-LentiX WEE1-ePL Degradation 4 hr (Ymin) (WEE1; [1]) | DC50 (WEE1) | EC50 (MKN45 cells) | 293T-LentiX WEE1-ePL Degradation 4 hr (Ymin) (WEE1; [2]) | SMILES | MKN45 Cell Prolif. 120 hr (Ymin-Obs) (MKN45 cells)
14.6 nM | 31 | 17.8 nM |  |  | O=C1CC[C@H](N2Cc3cc(O[C@H]4CCN(Cc5ccc6nc([C@H]7CCOC7)ncc6c5)C4)ccc3C2=O)C(=O)N1 [(3S)-3-(1-oxo-5-{[(3S)-1-({2-[(3R)-oxolan-3-yl]quinazolin-6-yl}methyl)pyrrolidin-3-yl]oxy}-2,3-dihydro-1H-isoindol-2-yl)piperidine-2,6-dione] | 8.266
 |  | 3.08 nM | 1.89 nM | 29.16 | COC[C@@H]1CN(Cc2ccc3nc(C4CCOCC4)ccc3c2)C[C@H]1Oc1ccc2c(c1)CN(C1CCC(=O)NC1=O)C2=O (stereo partly drawn) [3-(5-{[(3S,4S)-4-(methoxymethyl)-1-{[2-(oxan-4-yl)quinolin-6-yl]methyl}pyrrolidin-3-yl]oxy}-1-oxo-2,3-dihydro-1H-isoindol-2-yl)piperidine-2,6-dione] | 9.504
 |  | 4.34 nM | 5.54 nM | 30.79 | CO[C@H]1CCC[C@@H]1c1ccc2cc(CN3CC[C@H](Oc4ccc5c(c4)CN(C4CCC(=O)NC4=O)C5=O)C3)ccc2n1 (stereo partly drawn) [3-(5-{[(3S)-1-({2-[(1R,2S)-2-methoxycyclopentyl]quinolin-6-yl}methyl)pyrrolidin-3-yl]oxy}-1-oxo-2,3-dihydro-1H-isoindol-2-yl)piperidine-2,6-dione] | 8.858
19.7 nM | 27 | 65 nM |  |  | CC1(C)C[C@H](c2ncc3cc(CN4CC[C@H](Oc5ccc6c(c5)CN(C5CCC(=O)NC5=O)C6=O)C4)ccc3n2)CCO1 (stereo partly drawn) [3-(5-{[(3S)-1-({2-[(4R)-2,2-dimethyloxan-4-yl]quinazolin-6-yl}methyl)pyrrolidin-3-yl]oxy}-1-oxo-2,3-dihydro-1H-isoindol-2-yl)piperidine-2,6-dione] | 9.866
11.2 nM | 25.84 | 18.5 nM |  |  | O=C1CCC(N2Cc3cc(O[C@H]4CCN(Cc5ccc6nc(N7CCCC(F)(F)C7)ccc6c5)C4)ccc3C2=O)C(=O)N1 (stereo partly drawn) [3-(5-{[(3S)-1-{[2-(3,3-difluoropiperidin-1-yl)quinolin-6-yl]methyl}pyrrolidin-3-yl]oxy}-1-oxo-2,3-dihydro-1H-isoindol-2-yl)piperidine-2,6-dione] | 12.35
